Experimental data: patent US10183936B2, “Hepatitis B core protein allosteric modulators” (priority 2014, dated 2019)

Legend:
AD38 cells = assay: Viability of AD38 cells (Promega CellTiter-Glo) at the end of compound treatment; assay type: cell-based; conditions: 10 μM compound, 6 days, luminescence normalized against DMSO control wells (controls being 100%)
Outline: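 AD38 cells seeded at 50,000/well received compound from a 10× solution in 10% DMSO and were incubated 6 days at 37° C. Viability was then read by CellTiter-Glo luminescence in tetracycline-free medium with 2% FBS and 1% DMSO, normalized to DMSO control wells (100%) and reported as percent viability.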

[1] = system: HBV viral production in AD38 cells; assay: Viral load production in AD38 cells by quantitative PCR of the HBV core sequence in supernatant; assay type: cell-based; conditions: Hepatitis B virus, 144 h; 10 μM compound, 6 days at 37° C., viral load in supernatant compared against DMSO control wells; read-out: AD38 Viral Load (CpAM/DMSO %) at 10 μM
Outline: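 AD38 cells seeded at 50,000/well, treated 6 days at 37° C with compound added as 10× solution in 10% DMSO. HBV core sequence in clarified supernatant quantified by TaqMan qPCR against known standards; viral load compared with DMSO control wells.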

Row | SMILES | AD38 Viability Normalized Result (CPAM/DMSO %) at 10 μM (AD38 cells) [%] | activity at 10 µM [1] [%]
1 | O=C(NCc1cccnc1)c1ccc2c(c1)NC(=O)c1c(F)cccc1S2 [Compound 1490] | 79 | 7
2 | O=C(NCCc1ccc(-c2ccccc2)cc1)c1cc2c(cc1F)Sc1ccccc1C(=O)N2 [Compound 1491] | 80 | 39
3 | O=C(NCc1cnco1)c1ccc2c(c1)NC(=O)c1ccccc1N2Cc1ccccc1 [Compound 1492] | 79 | 39
4 | O=C(NCc1cccnc1)c1ccc2c(c1)NC(=O)c1ccccc1N2Cc1ccccc1 [Compound 1493] | 80 | 51
5 | O=C(Nc1ccncc1)c1ccc2c(c1)NC(=O)c1ccccc1N2Cc1ccccc1 [Compound 1494] | 60 | 115
6 | Cc1c(C(=O)NCCc2ccc(-c3ccccc3)cc2)ccc2c1NC(=O)c1ccccc1S2 [Compound 1495] | 77 | 9
7 | Cc1c(C(=O)Nc2cccc(-c3ccccc3)c2)ccc2c1NC(=O)c1ccccc1S2 [Compound 1496] | 18 | 2
8 | O=C1Nc2c(cc(F)c(C(=O)NCCc3ccc(-c4ccccc4)cc3)c2F)Sc2ccccc21 [Compound 1497] | 49 | 9
9 | CN1c2ccc(C(=O)NCCc3ccccn3)cc2NC(=O)c2ccccc21 [Compound 1498] | 82 | 1
10 | CN1c2ccc(C(=O)NCc3cccnc3)cc2NC(=O)c2ccccc21 [Compound 1499] | 84 | 2
11 | O=C1Nc2cc(COCCc3ccccc3)ccc2Sc2ccccc21 [Compound 1501, 8-(phenethoxymethyl) dibenzo [b,f] [1,4] thiazepin-11(10H)-one] | 71 | 37
12 | Cc1nnc(NC(=O)c2ccc3c(c2)NC(=O)c2cc(F)ccc2S3)o1 [Compound 1503] | 87 | 40
13 | O=C1Nc2cc(S(=O)(=O)Nc3cncnc3)ccc2Sc2ccccc21 [Compound 1505] | 85 | 81
14 | O=C1Nc2cc(S(=O)(=O)Nc3cncnc3)ccc2[S+]([O-])c2ccccc21 (stereo not drawn) [Compound 1506] | 85 | 72
15 | CN(C)S(=O)(=O)c1ccc(CCNC(=O)c2cc3c(cc2F)Sc2ccccc2C(=O)N3)cc1 [Compound 1507] | 96 | 11
16 | O=C(Nc1ccncc1)c1cc2c(cc1F)Sc1ccccc1C(=O)N2 [Compound 1508] | 81 | 31
17 | O=C(Nc1cccc(-c2ccccc2)c1)c1cc2c(cc1F)Sc1ccccc1C(=O)N2 [Compound 1509] | 29 | 15
18 | O=C(NCc1cncs1)c1ccc2c(c1)NC(=O)c1ccccc1N2Cc1ccccc1 [Compound 1510] | 82 | 62
19 | O=C(NCCc1cncs1)c1ccc2c(c1)NC(=O)c1ccccc1N2Cc1ccccc1 [Compound 1511] | 85 | 38
20 | CN(C)S(=O)(=O)c1ccc(CCNC(=O)c2ccc3c(c2)NC(=O)c2ccccc2N3Cc2ccccc2)cc1 [Compound 1512] | 99 | 27
21 | Cc1c(C(=O)NCc2cncs2)ccc2c1NC(=O)c1ccccc1S2 [Compound 1513] | 82 | 2
22 | Cc1c(C(=O)NCc2cnco2)ccc2c1NC(=O)c1ccccc1S2 [Compound 1514] | 84 | 13
23 | Cc1c(C(=O)NCc2cccnc2)ccc2c1NC(=O)c1ccccc1S2 [Compound 1515] | 82 | 2
24 | Cc1c(C(=O)Nc2ccncc2)ccc2c1NC(=O)c1ccccc1S2 [Compound 1516] | 82 | 30
25 | Cc1c(C(=O)NCCc2ccc(S(=O)(=O)N(C)C)cc2)ccc2c1NC(=O)c1ccccc1S2 [Compound 1517] | 78 | 2
26 | O=C1Nc2c(cc(F)c(C(=O)NCc3cncnc3)c2F)Sc2ccccc21 [Compound 1518] | 85 | 67
27 | O=C1Nc2c(cc(F)c(C(=O)NCCc3ccccn3)c2F)Sc2ccccc21 [Compound 1519] | 81 | 73
